For one molecule, Ki results are on record in BindingDB's records for doi:10.1016/s0960-894x(03)00356-1 (Abbott Laboratories, 2003).

This assay deals with Histamine H3 receptor (Rattus norvegicus) (UniProt Q9QYN8). In words: Compound was tested for its binding affinity towards rat cortical Histamine H3L receptor.

The structures appear in SMILES notation. pKi: −log10 of the molar value.

Histamine H3 receptor (Rattus norvegicus), sequence (Q9QYN8 whole entry, looked up): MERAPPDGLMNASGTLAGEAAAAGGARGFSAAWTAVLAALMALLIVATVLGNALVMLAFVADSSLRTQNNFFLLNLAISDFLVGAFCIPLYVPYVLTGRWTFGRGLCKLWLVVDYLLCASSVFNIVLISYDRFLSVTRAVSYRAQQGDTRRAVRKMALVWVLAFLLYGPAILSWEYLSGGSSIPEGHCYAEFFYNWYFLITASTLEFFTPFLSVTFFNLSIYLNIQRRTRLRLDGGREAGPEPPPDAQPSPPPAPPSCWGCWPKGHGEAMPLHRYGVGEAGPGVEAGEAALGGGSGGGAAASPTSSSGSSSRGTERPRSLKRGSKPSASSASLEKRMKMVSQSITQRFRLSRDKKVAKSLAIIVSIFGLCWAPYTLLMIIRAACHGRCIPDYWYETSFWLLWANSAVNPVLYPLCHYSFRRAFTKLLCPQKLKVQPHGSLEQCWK

`CN(C)CCCNc1c2c(nc3c1CCCC3)CCCCC2` gave a pKi of 6.80.
